# Measured values reported in patent US20240059740A1, “CYCLIC PEPTIDES AND USES THEREOF” (PRE[…] INC., priority 2020, published 2024).
# Assays:
# recombinant MMP-2 = target: T1, recombinant MMP-2 (Homo sapiens, UniProt P08253); test: MMP-2 Inhibitor Screening Assay Kit (colorimetric); format: biochemical; details: lower value = higher inhibitory activity
# T1 construct: purchased ab139446
# T1 sequence (P08253 110-660): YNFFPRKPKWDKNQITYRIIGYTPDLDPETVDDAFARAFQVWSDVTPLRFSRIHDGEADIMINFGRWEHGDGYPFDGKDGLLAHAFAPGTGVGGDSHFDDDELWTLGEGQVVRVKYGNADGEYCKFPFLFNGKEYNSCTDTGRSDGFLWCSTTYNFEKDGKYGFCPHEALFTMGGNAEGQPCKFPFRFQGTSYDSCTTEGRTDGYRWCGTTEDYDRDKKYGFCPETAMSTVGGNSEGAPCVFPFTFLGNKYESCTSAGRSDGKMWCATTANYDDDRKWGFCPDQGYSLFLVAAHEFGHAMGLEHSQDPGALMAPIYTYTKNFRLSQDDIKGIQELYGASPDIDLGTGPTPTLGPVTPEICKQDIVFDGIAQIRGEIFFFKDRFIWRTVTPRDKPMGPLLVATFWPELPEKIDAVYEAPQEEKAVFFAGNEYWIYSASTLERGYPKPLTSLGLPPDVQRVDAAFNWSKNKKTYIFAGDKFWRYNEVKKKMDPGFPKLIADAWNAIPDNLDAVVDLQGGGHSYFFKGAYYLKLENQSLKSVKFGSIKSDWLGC
# Experimental: MMP-2 is an important target for inhibitor screening due to its involvement in cancer growth, angiogenesis, and metastasis. The MMP-2 screening assay was carried out with a commercially available MMP-2 Inhibitor Screening Assay Kit (Colorimetric, Catalog: ab139446) based on the manufacturers protocol. This assay is based on quantification of recombinant MMP-2 activity using a colorimetric assay (MMP-2 degrades a chromogenic substrate). The assay provides NNGH (N-isobutyl-N-(4-methoxyphenylsulfonyl) glycyl hydroxamic acid), a small molecule inhibitor, as a positive control (NNGH). […] Each determination was run in duplicate.
# % Inhibition rate=(Vinhibitor/Vcontrol)×100
# Briefly, MMP Substrate and MMP Inhibitor were warmed to room temperature to thaw DMSO. MMP Inhibitor (NNGH), MMP-2 substrate and MMP-2 enzyme were diluted with assay buffer to required concentration. 20 μL of MMP-2 enzyme and MMP-2 inhibitor (peptides, Chlorotoxin and NNGH) was added, then 50 μL of assay buffer was added and the reaction mixture incubated at 37° C. for 1 h. After incubation, 10 μL of MMP Substrate was added to start reaction. The reactions were continuously read at 412 nm in a microplate reader. Data was recorded at 1 min. time intervals for 10 to 20 min. The data as was plotted as optical density (OD) versus time for each sample. The reaction velocity (V) was obtained in OD/min: determine the slope of a line fit to the linear portion of the data plot using an appropriate routine. Then using the equation above the inhibitor % activity remaining was calculated. The control was without inhibitor.
# 081024 cells = test: BME cell invasion assay, 081024; format: cell-based, human; details: 1 μM, 24 h
# Experimental: (§1) To assess whether the ability of SEQ ID NO.1 to inhibit MMP-2 activity and, to a lesser extent, reduce the production of matrix proteinases and downregulate the expression of EMT markers, was of functional consequence in reducing the invasiveness of the GBM cells, the ability of the peptide was tested at the concentrations of 1, 10 and 100 μM (none of which are toxic to cells) to inhibit invasion of the GBM cells through a basement membrane. This assay, described in more detail below, is an in vitro surrogate for measurement of the in vivo invasion by tumour cells of their environment.
# (§2) The cell invasion assay employs a simplified Boyden chamber-like design that consists of two chambers separated by a filter (an 8 μm polycarbonate (PC) membrane) coated with basement membrane or different extracellular matrix components. The cell suspension is placed in the top chamber and incubated in the presence of test media containing specific chemo-attractants in the bottom chamber. Cells migrate from the top chamber to the bottom of the filter by degrading the coating over the filter pores. Detection of cell invasion is quantified using Calcein AM. Cell dissociation/Calcein AM solution is placed in the bottom chamber to dissociate the migrating cells from the filter. Calcein AM is internalized by the cells, and intracellular-esterases cleave the aceto-methylester (AM) moiety. Free Calcein fluoresces brightly and is used to quantitate the number of cells that have invaded or migrated by comparison with a standard curve (In Vitro Technologies Pty Ltd, (https://lifescience.invitro.com.au/brands/r-and-d-systems/).
# (§3) The filter was coated with PathClear® growth factor reduced BME. The selected peptides were applied to the cells in both upper and lower wells to make sure the concentration of peptides were the same and the chemoattractant was serum at a concentration of 2% (for adherent U87 & U251 cells) or growth factor mix required in the medium (for non- adherent, 081024 oncospheres).
# (§4) Cell invasion was determined using CultureCoat® 96 Well Medium BME Cell Invasion assay. Briefly, the cells were pre-starved 24 h before harvest. Then seeding 25,000 per well of cell in the upper chamber with serum free medium together different concentration of peptide. The bottom chamber also added different concentration of peptides with 2% (V/V) serum for GBM adherent cells or growth factor mix for neurosphere cells as chemoattractant. After 24 h incubation, the invading cells were measured by Calcein AM and calculated based on standard curve.
# (§5) The results are shown in Table 12, the results are expressed as % inhibition.
# U87 cells = test: BME cell invasion assay, U87; format: cell-based, human; details: 1 μM, 24 h
# Experimental: as §1, §2, §3, §4, §5
# U251 cells = test: BME cell invasion assay, U251; format: cell-based, human; details: 1 μM, 24 h
# Experimental: as §1, §2, §3, §4, §5
Molecule,remaining activity (recombinant MMP-2; 1.3 μM),Invasion Inhibition Index (%) (081024 cells),"remaining activity (recombinant MMP-2; 1 μM, 1 h preincubation at 37° C.)",Invasion Inhibition Index (%) (U87 cells),Invasion Inhibition Index (%) (U251 cells)
"COc1ccc(S(=O)(=O)N(CC(=O)NO)CC(C)C)cc1 [NNGH, N-isobutyl-N-(4-methoxyphenylsulfonyl) glycyl hydroxamic acid, reference compound]",2.29%,–,–,–,–
Chlorotoxin [reference compound],–,45.0%,67.94%,39.5%,28.50%
